# Source: publication PMC4621994 (British Journal of Pharmacology, 2015)
# Where “and” joins values, the source holds several entries; their conditions need not be identical. Equal values may be shown once. Entries after “also recorded” stand apart in the source; their conditions may differ. Read-outs that look alike come from different tables or passages of the source.
# Assays:
# [1] = system: aEPSCs in hippocampal neurons; experiment: Autaptic excitatory postsynaptic currents (aEPSCs) in hippocampal microcultures; assay type: cell-based, rat
# α5β3γ2S GABAA receptor = target: T1, α5β3γ2S GABAA receptor (Rattus norvegicus, UniProt P18508+P19969+P63079); experiment: GABA-evoked currents through recombinant receptors in tsA 201 cells; assay type: cell-based; conditions: 30 μM flupirtine, normalized to 30 μM GABA in solvent
# T1 construct: expressed in transfected cells; host or cells: tsA 201 cells
# T1 sequence (P19969 32-464 limits assumed): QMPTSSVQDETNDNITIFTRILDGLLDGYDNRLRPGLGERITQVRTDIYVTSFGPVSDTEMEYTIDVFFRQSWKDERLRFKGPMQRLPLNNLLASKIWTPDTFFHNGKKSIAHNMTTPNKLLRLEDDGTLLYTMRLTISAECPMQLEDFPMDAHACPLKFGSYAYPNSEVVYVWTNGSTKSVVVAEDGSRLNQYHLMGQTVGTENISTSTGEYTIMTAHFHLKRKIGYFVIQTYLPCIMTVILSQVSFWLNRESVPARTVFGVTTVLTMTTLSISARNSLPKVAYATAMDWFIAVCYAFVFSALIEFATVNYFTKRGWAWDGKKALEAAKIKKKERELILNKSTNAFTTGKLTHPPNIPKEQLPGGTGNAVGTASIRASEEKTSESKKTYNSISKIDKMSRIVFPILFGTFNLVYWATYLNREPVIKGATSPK
# T1 sequence (P63079 26-473): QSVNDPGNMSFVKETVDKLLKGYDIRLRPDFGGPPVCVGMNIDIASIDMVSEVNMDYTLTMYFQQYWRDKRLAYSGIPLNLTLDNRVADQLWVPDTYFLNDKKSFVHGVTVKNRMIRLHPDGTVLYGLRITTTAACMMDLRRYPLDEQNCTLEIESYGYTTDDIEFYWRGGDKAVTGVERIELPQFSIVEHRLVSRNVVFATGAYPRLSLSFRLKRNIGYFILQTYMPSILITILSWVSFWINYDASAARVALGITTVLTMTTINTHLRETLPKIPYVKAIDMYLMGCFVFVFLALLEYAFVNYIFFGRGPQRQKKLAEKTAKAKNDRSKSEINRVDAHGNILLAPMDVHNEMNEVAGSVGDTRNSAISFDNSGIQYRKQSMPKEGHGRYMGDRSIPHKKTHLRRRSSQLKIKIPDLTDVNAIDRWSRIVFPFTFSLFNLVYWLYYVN
# T1 sequence (P18508 39-466): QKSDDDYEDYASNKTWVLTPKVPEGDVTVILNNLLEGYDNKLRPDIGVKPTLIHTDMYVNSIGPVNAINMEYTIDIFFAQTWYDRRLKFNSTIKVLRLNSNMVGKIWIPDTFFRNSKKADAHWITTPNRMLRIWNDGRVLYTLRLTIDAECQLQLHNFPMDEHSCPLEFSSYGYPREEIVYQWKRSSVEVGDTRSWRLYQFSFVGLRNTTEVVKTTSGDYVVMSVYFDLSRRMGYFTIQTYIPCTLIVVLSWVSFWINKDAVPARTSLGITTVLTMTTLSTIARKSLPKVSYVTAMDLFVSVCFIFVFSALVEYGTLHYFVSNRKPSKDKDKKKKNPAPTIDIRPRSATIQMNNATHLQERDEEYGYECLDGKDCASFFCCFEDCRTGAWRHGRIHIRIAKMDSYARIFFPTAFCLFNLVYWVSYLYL
# [2] = system: tonically active GABAA receptors in hippocampal neurons; assay type: cell-based, rat
# [3] = system: mIPSCs in hippocampal neurons; assay type: cell-based, rat
# [4] = target: T2, δ-containing GABAA receptors in DH neurons (Rattus norvegicus, UniProt P18506); experiment: THIP-evoked currents in dorsal horn neurons; assay type: cell-based; conditions: 3 μM THIP; concentration-dependent; more pronounced than on GABA currents; at 10 μM larger than on K+ currents
# T2 construct: endogenous in cells; host or cells: primary cultured rat dorsal horn neurons
# T2 sequence (P18506 17-449 limits assumed): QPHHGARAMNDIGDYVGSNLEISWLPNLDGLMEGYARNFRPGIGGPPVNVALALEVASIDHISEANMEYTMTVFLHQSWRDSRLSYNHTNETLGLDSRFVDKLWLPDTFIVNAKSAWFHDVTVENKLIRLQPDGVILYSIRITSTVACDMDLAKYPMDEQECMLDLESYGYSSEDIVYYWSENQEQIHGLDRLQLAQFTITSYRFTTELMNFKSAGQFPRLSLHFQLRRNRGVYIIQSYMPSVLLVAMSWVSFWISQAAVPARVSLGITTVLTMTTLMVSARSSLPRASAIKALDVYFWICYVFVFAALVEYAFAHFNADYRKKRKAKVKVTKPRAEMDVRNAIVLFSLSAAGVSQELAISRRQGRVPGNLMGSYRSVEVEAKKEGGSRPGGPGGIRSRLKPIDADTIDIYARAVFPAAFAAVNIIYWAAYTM
# [5] = system: untransfected tsA 201 cells; experiment: Control recordings in untransfected tsA 201 cells; assay type: cell-based; conditions: control experiments
# Experimental: Primary cultures of rat hippocampal and DH neurons were prepared as described previously (Klinger et al., [2012]). Micro-island cultures were obtained as detailed elsewhere (Dorostkar and Boehm, [2007]). For heterologous expression of GABAA receptors and Kv7 channels, tsA 201 cells (a subclone of HEK 293 cells) were cultured in DMEM containing 1 g · L^−1 glucose and 10% heat-inactivated fetal calf serum. Cells were transfected using ExGen 500 or TurboFect according to the manufacturer's recommendations, with a transfection ratio of 1:1 for αβ receptors, 1:1:8 for αβγ or αβδ receptors and 1:1 for heteromeric Kv7.2/Kv7.3 channels. The day after transfection, cells were seeded at a low density and used for patch-clamp recordings 24–48 h after transfection.
# α3β3γ2S GABAA receptor = target: T3, α3β3γ2S GABAA receptor (Rattus norvegicus, UniProt P18508+P20236+P63079); experiment: GABA-evoked currents through recombinant receptors in tsA 201 cells; assay type: cell-based; conditions: 30 μM flupirtine, normalized to 30 μM GABA in solvent, n.s. vs solvent
# T3 construct: expressed in transfected cells; host or cells: tsA 201 cells
# T3 sequence (P20236 29-493): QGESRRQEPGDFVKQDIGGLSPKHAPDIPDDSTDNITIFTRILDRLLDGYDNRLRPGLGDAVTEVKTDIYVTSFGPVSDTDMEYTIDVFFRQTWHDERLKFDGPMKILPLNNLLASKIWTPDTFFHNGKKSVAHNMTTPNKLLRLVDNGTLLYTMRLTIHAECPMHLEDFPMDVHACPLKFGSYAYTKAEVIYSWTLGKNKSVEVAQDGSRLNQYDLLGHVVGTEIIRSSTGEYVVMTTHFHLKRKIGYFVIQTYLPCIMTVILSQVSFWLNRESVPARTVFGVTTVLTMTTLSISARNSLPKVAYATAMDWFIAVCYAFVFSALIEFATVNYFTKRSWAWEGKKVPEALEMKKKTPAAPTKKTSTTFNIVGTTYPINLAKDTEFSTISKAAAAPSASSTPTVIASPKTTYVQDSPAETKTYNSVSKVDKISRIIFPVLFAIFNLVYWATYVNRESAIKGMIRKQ
# T3 sequence (P63079 26-473): as the sequence (P63079 26-473) above
# T3 sequence (P18508 39-466): as the sequence (P18508 39-466) above
# α2β2γ2S GABAA receptor = target: T4, α2β2γ2S GABAA receptor (Rattus norvegicus, UniProt P18508+P23576+P63138); experiment: as above; assay type: cell-based; conditions: 30 μM flupirtine, normalized to 30 μM GABA in solvent, n.s. vs solvent
# T4 construct: expressed in transfected cells; host or cells: tsA 201 cells
# T4 sequence (P23576 29-451): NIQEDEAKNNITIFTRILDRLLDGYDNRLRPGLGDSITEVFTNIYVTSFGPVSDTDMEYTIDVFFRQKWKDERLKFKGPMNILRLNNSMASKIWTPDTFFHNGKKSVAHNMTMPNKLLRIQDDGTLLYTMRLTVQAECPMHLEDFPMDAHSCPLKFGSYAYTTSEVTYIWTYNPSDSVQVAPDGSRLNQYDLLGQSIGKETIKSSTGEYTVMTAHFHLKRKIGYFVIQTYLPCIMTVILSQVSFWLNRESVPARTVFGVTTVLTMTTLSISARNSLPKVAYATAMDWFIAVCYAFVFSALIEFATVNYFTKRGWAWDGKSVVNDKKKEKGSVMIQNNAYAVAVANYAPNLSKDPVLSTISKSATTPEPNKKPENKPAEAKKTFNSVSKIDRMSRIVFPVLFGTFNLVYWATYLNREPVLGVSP
# T4 sequence (P63138 25-474 limits assumed): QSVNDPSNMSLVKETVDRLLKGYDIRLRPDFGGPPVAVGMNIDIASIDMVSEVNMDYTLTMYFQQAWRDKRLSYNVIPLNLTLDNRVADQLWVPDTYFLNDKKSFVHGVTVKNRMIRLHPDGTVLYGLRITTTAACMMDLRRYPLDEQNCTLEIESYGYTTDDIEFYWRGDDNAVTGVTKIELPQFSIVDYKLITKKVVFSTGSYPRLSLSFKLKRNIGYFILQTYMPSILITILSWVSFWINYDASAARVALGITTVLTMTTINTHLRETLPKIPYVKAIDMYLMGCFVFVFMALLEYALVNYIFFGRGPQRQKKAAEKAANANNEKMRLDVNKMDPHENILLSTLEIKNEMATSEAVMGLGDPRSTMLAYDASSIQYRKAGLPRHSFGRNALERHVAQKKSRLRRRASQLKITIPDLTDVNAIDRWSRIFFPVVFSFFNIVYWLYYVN
# T4 sequence (P18508 39-466): as the sequence (P18508 39-466) above
# [6] = Plasma pharmacokinetics and therapeutic plasma levels of flupirtine (literature); assay type: in vivo; conditions: after single doses
# [7] = system: GABAA receptors in DH neurons; experiment: GABA-evoked currents in dorsal horn neurons; assay type: cell-based, rat; conditions: 3 μM GABA; concentration-dependent
# [8] = system: native GABAA receptors in hippocampal neurons; experiment: GABA-evoked currents in cultured hippocampal neurons, perforated patch; assay type: cell-based, rat; conditions: for GABA Emax (normalized) in the presence of flupirtine (30 μM) / GABA Emax (normalized), solvent: Hippocampus neurons
# α4β3γ2S GABAA receptor = target: T5, α4β3γ2S GABAA receptor (Rattus norvegicus, UniProt P18508+P28471+P63079); experiment: GABA-evoked currents through recombinant receptors in tsA 201 cells; assay type: cell-based; conditions: 30 μM flupirtine, normalized to 30 μM GABA in solvent
# T5 construct: expressed in transfected cells; host or cells: tsA 201 cells
# T5 sequence (P28471 36-552): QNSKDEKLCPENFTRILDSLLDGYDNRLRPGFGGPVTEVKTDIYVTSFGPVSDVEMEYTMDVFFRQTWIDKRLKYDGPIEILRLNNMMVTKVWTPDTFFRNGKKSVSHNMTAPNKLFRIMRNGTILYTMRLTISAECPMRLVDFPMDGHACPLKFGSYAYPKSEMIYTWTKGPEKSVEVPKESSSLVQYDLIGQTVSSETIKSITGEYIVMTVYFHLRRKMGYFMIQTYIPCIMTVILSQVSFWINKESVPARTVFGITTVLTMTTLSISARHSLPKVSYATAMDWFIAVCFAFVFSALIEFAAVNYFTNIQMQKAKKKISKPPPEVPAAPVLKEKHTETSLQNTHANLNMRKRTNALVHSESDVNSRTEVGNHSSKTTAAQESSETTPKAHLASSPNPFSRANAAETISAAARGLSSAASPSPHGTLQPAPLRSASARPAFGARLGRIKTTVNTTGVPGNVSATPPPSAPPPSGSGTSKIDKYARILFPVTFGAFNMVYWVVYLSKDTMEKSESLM
# T5 sequence (P63079 26-473): as the sequence (P63079 26-473) above
# T5 sequence (P18508 39-466): as the sequence (P18508 39-466) above
# [9] = target: T6, δ-containing GABAA receptors in hippocampal neurons (Rattus norvegicus, UniProt P18506); experiment: THIP-evoked currents in cultured hippocampal neurons; assay type: cell-based; conditions: 30 μM flupirtine; 3 μM THIP; greater extent than 3 μM GABA in 5 mM penicillin
# T6 construct: endogenous in cells; host or cells: primary cultured rat hippocampal neurons
# T6 sequence (P18506 17-449 limits assumed): as the sequence (P18506 17-449 limits assumed) above
# [10] = system: αβ and γ-containing recombinant GABAA receptors; assay type: cell-based, rat
# α1β2 GABAA receptor = target: T7, α1β2 GABAA receptor (Rattus norvegicus, UniProt P62813+P63138); experiment: GABA-evoked currents through recombinant receptors in tsA 201 cells; assay type: cell-based; conditions: 30 μM flupirtine, normalized to 30 μM GABA in solvent
# T7 construct: expressed in transfected cells; host or cells: tsA 201 cells
# T7 sequence (P62813 28-455): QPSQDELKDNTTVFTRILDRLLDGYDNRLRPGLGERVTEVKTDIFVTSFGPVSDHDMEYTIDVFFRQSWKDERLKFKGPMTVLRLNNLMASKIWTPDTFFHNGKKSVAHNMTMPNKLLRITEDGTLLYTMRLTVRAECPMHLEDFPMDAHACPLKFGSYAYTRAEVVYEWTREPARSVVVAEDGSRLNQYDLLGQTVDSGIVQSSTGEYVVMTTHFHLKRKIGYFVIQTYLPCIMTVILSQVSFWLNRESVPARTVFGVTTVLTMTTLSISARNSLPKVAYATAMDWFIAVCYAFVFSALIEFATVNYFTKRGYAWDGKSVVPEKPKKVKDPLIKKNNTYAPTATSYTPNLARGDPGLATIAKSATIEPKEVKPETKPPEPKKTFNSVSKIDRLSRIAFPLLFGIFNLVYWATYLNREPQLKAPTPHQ
# T7 sequence (P63138 25-474 limits assumed): as the sequence (P63138 25-474 limits assumed) above
# Kv7 channels = system: Kv7 channels; set-up: method as in Klinger et al., 2012; conditions: ref Klinger et al., 2012; read-out: EC50 for the facilitation of Kv7 channels; cited from earlier work
# [11] = cited from earlier work
# α1β2δ GABAA receptor = target: T8, α1β2δ GABAA receptor (Rattus norvegicus, UniProt P18506+P62813+P63138); experiment: GABA-evoked currents through recombinant receptors in tsA 201 cells; assay type: cell-based
# T8 construct: expressed in transfected cells; host or cells: tsA 201 cells
# T8 sequence (P62813 28-455): as the sequence (P62813 28-455) above
# T8 sequence (P63138 25-474 limits assumed): as the sequence (P63138 25-474 limits assumed) above
# T8 sequence (P18506 17-449 limits assumed): as the sequence (P18506 17-449 limits assumed) above
# α4β3 GABAA receptor = target: T9, α4β3 GABAA receptor (Rattus norvegicus, UniProt P28471+P63079); experiment: as above; assay type: cell-based; conditions: 30 μM flupirtine, normalized to 30 μM GABA in solvent
# T9 construct: expressed in transfected cells; host or cells: tsA 201 cells
# T9 sequence (P28471 36-552): as the sequence (P28471 36-552) above
# T9 sequence (P63079 26-473): as the sequence (P63079 26-473) above
# [12] = target: T10, heteromeric Kv7.2/Kv7.3 channels (UniProt O43526+O88944); experiment: Currents through recombinant Kv7 channels in tsA 201 cells, ramp hyperpolarizations, amplitude at −30 mV; assay type: cell-based
# T10 construct: expressed in transfected cells; host or cells: tsA 201 cells
# [13] = system: Kv7 channels in hippocampal neurons; experiment: K+ currents in hippocampal neurons, ramp hyperpolarizations, amplitude at −30 mV; assay type: cell-based, rat
# [14] = system: aIPSCs in hippocampal neurons; experiment: Autaptic inhibitory postsynaptic currents (aIPSCs) in hippocampal microcultures; assay type: cell-based, rat
# α1β2γ2S GABAA receptor = target: T11, α1β2γ2S GABAA receptor (Rattus norvegicus, UniProt P18508+P62813+P63138); experiment: GABA-evoked currents through recombinant receptors in tsA 201 cells; assay type: cell-based
# T11 construct: expressed in transfected cells; host or cells: tsA 201 cells
# T11 sequence (P62813 28-455): as the sequence (P62813 28-455) above
# T11 sequence (P63138 25-474 limits assumed): as the sequence (P63138 25-474 limits assumed) above
# T11 sequence (P18508 39-466): as the sequence (P18508 39-466) above
# [15] = system: Kv7 channels in DH neurons; experiment: K+ currents in dorsal horn neurons, ramp hyperpolarizations, amplitude at −30 mV; assay type: cell-based, rat; conditions: 3 and 10 μM flupirtine; quantified at −30 mV
# [16] = set-up: method as in Friedel and Fitton, 1993; conditions: ref Friedel and Fitton, 1993; cited from earlier work
# α4β3δ GABAA receptor = target: T12, α4β3δ GABAA receptor (Rattus norvegicus, UniProt P18506+P28471+P63079); experiment: GABA-evoked currents through recombinant receptors in tsA 201 cells; assay type: cell-based
# T12 construct: expressed in transfected cells; host or cells: tsA 201 cells
# T12 sequence (P28471 36-552): as the sequence (P28471 36-552) above
# T12 sequence (P63079 26-473): as the sequence (P63079 26-473) above
# T12 sequence (P18506 17-449 limits assumed): as the sequence (P18506 17-449 limits assumed) above
compound,measurement,setting,value
"N#Cc1cc2nc(O)c(O)nc2cc1[N+](=O)[O-] [CNQX, cyano-2,3-dihydroxy-7-nitroquinoxaline]",Effect on aEPSCs,[1]; 10 μM CNQX,blocked
CCOC(=O)Nc1ccc(NCc2ccc(F)cc2)nc1N [Flupirtine],GABA Emax (normalized) in the presence of flupirtine (30 μM),α5β3γ2S GABAA receptor,0.94 ± 0.06
same,Effect on holding currents,"[2]; 30 μM flupirtine, −70 mV",shifted towards more negative values
same,Effect on amplitudes of bicuculline-sensitive tonic currents,"[2]; 3 to 30 μM flupirtine, concentration-dependent",enhanced
same,"Effect on all characteristics of mIPSCs (amplitudes, rise times, half widths)","[3]; 30 μM flupirtine, 0.5 μM tetrodotoxin plus 10 μM CNQX",remained unaltered
same,Effect of flupirtine on THIP-induced currents,[4],enhanced
same,Effect on currents in untransfected cells,[5],failed to enhance any type of current
same,GABA Emax (normalized) in the presence of flupirtine (30 μM),α3β3γ2S GABAA receptor,1.93 ± 0.10 n.s.
same,GABA Emax (normalized) in the presence of flupirtine (30 μM),α2β2γ2S GABAA receptor,2.54 ± 0.14 n.s.
same,Free plasma concentrations,[6],1000 to 2000 nM
same,Effect of flupirtine on GABA-induced currents,[7],enhanced
same,Maximal increase in GABA-evoked current amplitudes (factor),[8],~9 and > 8
same,Maximal increase in GABA-evoked current amplitudes (factor),"[8]; 3 μM GABA in solvent, no penicillin",2.5 and < 3
same,Effect of flupirtine on GABA-evoked currents,"[8]; 3 μM flupirtine, presence of penicillin",enhanced
same,Effect of flupirtine on GABA-evoked currents,"[8]; 10 μM flupirtine, absence of penicillin",increased
same,Effect of flupirtine on GABA-evoked currents,"[8]; 10 μM flupirtine, presence of penicillin, more pronounced than on the other currents",increased
same,GABA Emax (normalized) in the presence of flupirtine (30 μM),"[8]; 30 μM flupirtine, normalized to 30 μM GABA in solvent, n.s. vs solvent",1.25 ± 0.04 n.s.
same,GABA Emax (normalized) in the presence of flupirtine (30 μM),"[8]; 5 mM penicillin plus 30 μM flupirtine, normalized to 30 μM GABA in penicillin plus solvent",1.46 ± 0.03
same,Effect on aEPSCs,[1]; aIPSCs (former) vs aEPSCs (latter),only the former ones were affected
same,GABA Emax (normalized) in the presence of flupirtine (30 μM),α4β3γ2S GABAA receptor,1.63 ± 0.05
same,Effect of flupirtine on THIP-induced currents,[9],augmented
same,Reduction of maximal current amplitudes,[10],18 to 35%
same,GABA Emax (normalized) in the presence of flupirtine (30 μM),α1β2 GABAA receptor,0.71 ± 0.02
same,EC50,Kv7 channels,5 µM
same,Accumulation,"[11]; four regularly spaced oral doses a day, ref Friedel and Fitton, 1993",more than twofold
same,Plasma half-life,"[11]; ref Friedel and Fitton, 1993",about 10 h
same,Plasma concentrations,"[11]; single dose of 200 mg, ref Hummel et al., 1991",around 5 μM
same,EC50,α1β2δ GABAA receptor,108 µM
same,Effect of flupirtine on GABA-evoked currents,α1β2δ GABAA receptor,potentiated; also recorded: augmented
same,Maximum of flupirtine effect on GABA-evoked currents (normalized to solvent),α1β2δ GABAA receptor,28.8
same,GABA Emax (normalized) in the presence of flupirtine (30 μM),"α1β2δ GABAA receptor; α1β2δ, 30 μM flupirtine, normalized to 30 μM GABA in solvent",2.27 ± 0.06
same,GABA Emax (normalized) in the presence of flupirtine (30 μM),α4β3 GABAA receptor,0.78 ± 0.02
same,Effect of flupirtine on currents through Kv7 channels at −30 mV,[12]; 3 μM flupirtine,enhanced
same,Effect of flupirtine on currents through Kv7 channels at −30 mV,[12]; 10 μM flupirtine,augmented
same,Effect of flupirtine on K+ currents at −30 mV,[13]; 3 μM flupirtine,enhanced
same,Effect of flupirtine on K+ currents at −30 mV,[13]; 10 μM flupirtine,increased
same,Effect on aIPSC peak amplitudes,[14],unaltered
same,EC50,"[14]; Rattus norvegicus, Hippocampal neuron, n = 6, read-out: EC50 for the effect on aIPSC charge transfer",12 µM
same,Effect of flupirtine on GABA-evoked currents,α1β2γ2S GABAA receptor; 10 μM flupirtine,augmented
same,GABA Emax (normalized) in the presence of flupirtine (30 μM),"α1β2γ2S GABAA receptor; 30 μM flupirtine, normalized to 30 μM GABA in solvent",0.85 ± 0.02
same,Effect of flupirtine on K+ currents,[15],enhanced
same,Bound by plasma proteins,[16],80%
same,EC50,α4β3δ GABAA receptor,7 µM
same,Maximum of flupirtine effect on GABA-evoked currents (normalized to solvent),"α4β3δ GABAA receptor; α4β3δ, 1 μM GABA, fixed to the highest value determined",1.5
same,Effect of flupirtine on GABA-evoked currents,"α4β3δ GABAA receptor; α4β3δ, 3 μM flupirtine, 1 μM GABA",potentiated
same,Effect of flupirtine on GABA-evoked currents,"α4β3δ GABAA receptor; α4β3δ, 10 μM flupirtine",augmented
same,GABA Emax (normalized) in the presence of flupirtine (30 μM),"α4β3δ GABAA receptor; α4β3δ, 30 μM flupirtine, normalized to 30 μM GABA in solvent",1.55 ± 0.06
NCCCC(=O)O [GABA],"GABA Emax (normalized), solvent","[8]; 5 mM penicillin present, normalized to 30 μM GABA in penicillin plus solvent",1.02 ± 0.02
same,"GABA Emax (normalized), solvent","[8]; solvent, normalized to current by 30 μM GABA in solvent",1.33 ± 0.03
Cc1ncc2n1-c1ccc(Cl)cc1C(c1ccccc1F)=NC2 [midazolam],Effect on holding currents,[2]; 3 μM midazolam,slight shift of holding currents in an inward direction
same,Effect on half widths of mIPSCs,[3]; 3 μM midazolam,increased
same,Effect on mIPSC amplitudes or rise times,[3]; 3 μM midazolam,without altering
penicillin,Effect on holding currents,[2]; 5 mM penicillin,did not affect
same,Effect on mIPSCs,[3]; 5 mM penicillin,abolished
same,Effect on maximal amplitudes of GABA-evoked currents,[8]; 5 mM penicillin,significantly reduced
